Data reported in ChEMBL document CHEMBL1177848, “Synthesis of novel 6,6a,7,8-tetrahydro-5H-naphtho[1,2-e]pyrimido[4,5-b][1,4]diazepines under microwave irradiation as potential anti-tumor agents” (2010).
Activity calls are given as the source filed them. The calls are words filed in the database; no cut-off is given here.

Experiments:
A498 = experiment: Growth inhibition of human A498 cells after 48 hrs by sulforhodamine B assay; format: functional; details: A498, 48 h
KM12 = experiment: Growth inhibition of human KM12 cells at 1 uM after 48 hrs by sulforhodamine B assay; format: functional, cell-based
U-251 = experiment: Growth inhibition of human U251 cells at 1 uM after 48 hrs by sulforhodamine B assay; format: functional, cell-based
Malme-3M [1] = experiment: Growth inhibition of human MALME-3M cells after 48 hrs by sulforhodamine B assay; format: functional
COLO 205 = experiment: Growth inhibition of human COLO205 cells after 48 hrs by sulforhodamine B assay; format: functional; details: COLO 205, 48 h
Malme-3M [2] = experiment: Growth inhibition of human MALME-3M cells at 1 uM after 48 hrs by sulforhodamine B assay; format: functional, cell-based
T47D = experiment: Growth inhibition of human T47D cells after 48 hrs by sulforhodamine B assay; format: functional
SK-MEL-28 = experiment: Growth inhibition of human SK-MEL-28 cells at 1 uM after 48 hrs by sulforhodamine B assay; format: functional, cell-based
OVCAR-8 = experiment: Growth inhibition of human OVCAR8 cells at 1 uM after 48 hrs by sulforhodamine B assay; format: functional, cell-based
A549 = experiment: Growth inhibition of human A549 cells at 1 uM after 48 hrs by sulforhodamine B assay; format: functional, cell-based
IGROV-1 [3] = experiment: Growth inhibition of human IGROV1 cells after 48 hrs by sulforhodamine B assay; format: functional; details: IGROV-1, 48 h
HCT-116 = experiment: Growth inhibition of human HCT116 cells at 1 uM after 48 hrs by sulforhodamine B assay; format: functional, cell-based
OVCAR-3 = experiment: Growth inhibition of human OVCAR-3 cells at 1 uM after 48 hrs by sulforhodamine B assay; format: functional, cell-based
RXF 393 [4] = experiment: Growth inhibition of human RXF393 cells at 1 uM after 48 hrs by sulforhodamine B assay; format: functional, cell-based
MDA-MB-231 = experiment: Growth inhibition of human MDA-MB-231 cells after 48 hrs by sulforhodamine B assay; format: functional; details: MDA-MB-231, 48 h
BT-549 = experiment: Growth inhibition of human BT549 cells after 48 hrs by sulforhodamine B assay; format: functional; details: BT-549, 48 h
SK-MEL-2 = experiment: Growth inhibition of human SK-MEL-2 cells at 1 uM after 48 hrs by sulforhodamine B assay; format: functional, cell-based
SF-295 = experiment: Growth inhibition of human SF295 cells at 1 uM after 48 hrs by sulforhodamine B assay; format: functional, cell-based
HL-60 = experiment: Growth inhibition of human HL-60(TB) cells at 1 uM after 48 hrs by sulforhodamine B assay; format: functional, cell-based
HOP-92 = experiment: Growth inhibition of human HOP92 cells at 1 uM after 48 hrs by sulforhodamine B assay; format: functional, cell-based
NCI-H23 = experiment: Growth inhibition of human NCI-H23 cells after 48 hrs by sulforhodamine B assay; format: functional; details: NCI-H23, 48 h
SF-539 = experiment: Growth inhibition of human SF539 cells at 1 uM after 48 hrs by sulforhodamine B assay; format: functional, cell-based
SK-MEL-5 = experiment: Growth inhibition of human SK-MEL-5 cells at 1 uM after 48 hrs by sulforhodamine B assay; format: functional, cell-based
SR = experiment: Growth inhibition of human SR cells after 48 hrs by sulforhodamine B assay; format: functional
HCT-15 = experiment: Growth inhibition of human HCT15 cells at 1 uM after 48 hrs by sulforhodamine B assay; format: functional, cell-based
UO-31 [5] = experiment: Growth inhibition of human UO31 cells after 48 hrs by sulforhodamine B assay; format: functional; details: UO-31, 48 h
SF530 = experiment: Growth inhibition of human SF530 cells at 1 uM after 48 hrs by sulforhodamine B assay; format: functional, cell-based
RPMI-8226 = experiment: Growth inhibition of human RPMI8226 cells at 1 uM after 48 hrs by sulforhodamine B assay; format: functional, cell-based
NCI-H460 = experiment: Growth inhibition of human NCI-H460 cells after 48 hrs by sulforhodamine B assay; format: functional; details: NCI-H460, 48 h
IGROV-1 [6] = experiment: Growth inhibition of human IGROV1 cells at 1 uM after 48 hrs by sulforhodamine B assay; format: functional, cell-based
HT-29 [7] = experiment: Growth inhibition of human HT-29 cells after 48 hrs by sulforhodamine B assay; format: functional; details: HT-29, 48 h
K562 = experiment: Growth inhibition of human K562 cells at 1 uM after 48 hrs by sulforhodamine B assay; format: functional, cell-based
SN12C = experiment: Growth inhibition of human SN12C cells at 1 uM after 48 hrs by sulforhodamine B assay; format: functional, cell-based
HT-29 [8] = experiment: Growth inhibition of human HT-29 cells at 1 uM after 48 hrs by sulforhodamine B assay; format: functional, cell-based
LOX IMVI = experiment: Growth inhibition of human LOXIMVI cells at 1 uM after 48 hrs by sulforhodamine B assay; format: functional, cell-based
RXF 393 [9] = experiment: Growth inhibition of human RXF393 cells after 48 hrs by sulforhodamine B assay; format: functional; details: RXF 393, 48 h
NCI-H322M = experiment: Growth inhibition of human […] cells at 1 uM after 48 hrs by sulforhodamine B assay; format: functional, cell-based
OVCAR-4 [10] = experiment: Growth inhibition of human OVCAR4 cells at 1 uM after 48 hrs by sulforhodamine B assay; format: functional, cell-based
ACHN = experiment: Growth inhibition of human ACHN cells at 1 uM after 48 hrs by sulforhodamine B assay; format: functional, cell-based
UO-31 [11] = experiment: Growth inhibition of human UO31 cells at 1 uM after 48 hrs by sulforhodamine B assay; format: functional, cell-based
UACC-257 = experiment: Growth inhibition of human UACC257 cells after 48 hrs by sulforhodamine B assay; format: functional; details: UACC-257, 48 h
NCI-H226 = experiment: Growth inhibition of human NCI-H226 cells at 1 uM after 48 hrs by sulforhodamine B assay; format: functional, cell-based
MDA-MB-435 = experiment: Growth inhibition of human MDA-MB-435 cells at 1 uM after 48 hrs by sulforhodamine B assay; format: functional, cell-based
EKVX = experiment: Growth inhibition of human EKVX cells after 48 hrs by sulforhodamine B assay; format: functional
MOLT-4 = experiment: Growth inhibition of human MOLT4 cells at 1 uM after 48 hrs by sulforhodamine B assay; format: functional, cell-based
OVCAR-4 [12] = experiment: Growth inhibition of human OVCAR4 cells after 48 hrs by sulforhodamine B assay; format: functional; details: OVCAR-4, 48 h
MCF7 = experiment: Growth inhibition of human MCF7 cells after 48 hrs by sulforhodamine B assay; format: functional; details: MCF7, 48 h
[13] = read-out: LC50 (the source's name)

For `Nc1nc(N)c2c(n1)NC(c1ccc(F)cc1)C1CCc3ccccc3C1=N2` (centres undefined), the GI50 (A498) was 2.87 µM, the LC50 (A498) was 30.6 µM and the “growth inhibition (GI)” value (KM12) was “inactive”. The “growth inhibition (GI)” value (U-251) was “inactive”, the GI50 (Malme-3M [1]) was 2.52 µM and the LC50 (Malme-3M [1]) was 68.6 µM. For the same compound, the GI50 (COLO 205) was 1.62 µM, the LC50 (50% lethal concentration) (COLO 205) was 80.7 µM and the “growth inhibition (GI)” value (Malme-3M [2]) was “inactive”. For the same compound, the GI50 (T47D) was 3.86 µM, the CC50 (T47D; [13]) was 62.9 µM and the “growth inhibition (GI)” value (SK-MEL-28) was “inactive”. The “growth inhibition (GI)” value (OVCAR-8) was “inactive”, the “growth inhibition (GI)” value (A549) was “inactive” and the GI50 (IGROV-1 [3]) was 7.79 µM. For the same compound, the LC50 (concentration killing 50% of cells) (IGROV-1 [3]) was 63.9 µM, the “growth inhibition (GI)” value (HCT-116) was “inactive” and the “growth inhibition (GI)” value (OVCAR-3) was “inactive”. For the same compound, the “growth inhibition (GI)” value (RXF 393 [4]) was “inactive”, the GI50 (MDA-MB-231) was 5.8 µM and the CC50 (MDA-MB-231; [13]) was 48.5 µM. For the same compound, the GI50 (BT-549) was 3.89 µM, the CC50 (BT-549; [13]) was 43.5 µM and the “growth inhibition (GI)” value (SK-MEL-2) was “inactive”. The “growth inhibition (GI)” value (SF-295) was “inactive”, the “growth inhibition (GI)” value (HL-60) was “inactive” and the “growth inhibition (GI)” value (HOP-92) was “inactive”. For the same compound, the GI50 (NCI-H23) was 4.06 µM, the LC50 (NCI-H23) was 46.4 µM and the “growth inhibition (GI)” value (SF-539) was “inactive”. For the same compound, the “growth inhibition (GI)” value (SK-MEL-5) was “inactive”, the GI50 (SR) was 1.65 µM and the LC50 (SR) was 12.5 µM. The “growth inhibition (GI)” value (HCT-15) was “inactive”, the GI50 (UO-31 [5]) was 3.34 µM and the LC50 (UO-31 [5]) was 55.3 µM. For the same compound, the “growth inhibition (GI)” value (SF530) was “inactive”, the “growth inhibition (GI)” value (RPMI-8226) was “inactive” and the GI50 (NCI-H460) was 3.76 µM. For the same compound, the LC50 (NCI-H460) was 43.3 µM, the “growth inhibition (GI)” value (IGROV-1 [6]) was “inactive” and the GI50 (HT-29 [7]) was 3.84 µM. For the same compound, the CC50 (HT-29 [7]; [13]) was 38.7 µM, the “growth inhibition (GI)” value (K562) was “inactive” and the “growth inhibition (GI)” value (SN12C) was “inactive”. The “growth inhibition (GI)” value (HT-29 [8]) was “inactive”, the “growth inhibition (GI)” value (LOX IMVI) was “inactive” and the GI50 (RXF 393 [9]) was 5.48 µM. The LC50 (50% lethal concentration) (RXF 393 [9]) was 60.4 µM, the “growth inhibition (GI)” value (NCI-H322M) was “inactive” and the “growth inhibition (GI)” value (OVCAR-4 [10]) was “inactive”. The “growth inhibition (GI)” value (ACHN) was “inactive”, the “growth inhibition (GI)” value (UO-31 [11]) was “inactive” and the GI50 (UACC-257) was 5.37 µM. For the same compound, the CC50 (UACC-257; [13]) was 43.3 µM, the “growth inhibition (GI)” value (NCI-H226) was “inactive” and the “growth inhibition (GI)” value (MDA-MB-435) was “inactive”. For the same compound, the GI50 (EKVX) was 2.83 µM, the LC50 (EKVX) was 62.6 µM and the “growth inhibition (GI)” value (MOLT-4) was “inactive”. The GI50 (OVCAR-4 [12]) was 3.98 µM, the LC50 (50% lethal concentration) (OVCAR-4 [12]) was 50.2 µM and the GI50 (MCF7) was 2.67 µM. The LC50 (MCF7) was 36.3 µM.
